What all share (experiment): relative viability (nuclei count vs DMSO), 5 days (fraction); higher = more cells survive
Compound in the experiment “Axitinib + OSI-027”: CNC(=O)c1ccccc1Sc1ccc2c(/C=C/c3ccccn3)n[nH]c2c1 [Axitinib] + COc1cccc2cc(-c3nc([C@H]4CC[C@H](C(=O)O)CC4)n4ncnc(N)c34)[nH]c12 [OSI-027] (partner 0.5 µM)
Put shortly:
(§1)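 Relative viability was taken as the ratio of nuclei in treated wells to nuclei in vehicle wells. Lung cancer cell lines in 1536-well plates received compounds by pin tool one day after seeding, either one drug alone or a fixed anchor-drug dose plus five library-drug doses (not always all listed) in √10 steps. Nuclei were counted on 4× images after 5 days of treatment, and values are medians of duplicate plates.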

Compound in experiment [1]: CC1=CC=C(C=C1)C(=O)CN2C3=C(CCCC3)SC2=N [Pifithrin_alpha] + Cc1cc(Nc2cc(N3CCN(C)CC3)nc(Sc3ccc(NC(=O)C4CC4)cc3)n2)n[nH]1 [Tozasertib] (partner 0.1 µM)
An outline of the steps:
as §1

Compound in the experiment “Bemcentinib + Pictilisib”: Nc1nc(Nc2ccc3c(c2)CC[C@@H](N2CCCC2)CC3)nn1-c1cc2c(nn1)-c1ccccc1CCC2 [Bemcentinib] + CS(=O)(=O)N1CCN(Cc2cc3nc(-c4cccc5[nH]ncc45)nc(N4CCOCC4)c3s2)CC1 [Pictilisib] (partner 1 µM)
Put shortly: as §1

Compound in the experiment “Bemcentinib + Vorinostat”: Nc1nc(Nc2ccc3c(c2)CC[C@@H](N2CCCC2)CC3)nn1-c1cc2c(nn1)-c1ccccc1CCC2 [Bemcentinib] + O=C(CCCCCCC(=O)Nc1ccccc1)NO [Vorinostat] (partner 1 µM)
An outline of the steps: as §1

As to PC-3 [JPC-3], the relative viability with Axitinib + OSI-027 (first compound 0.005 µM) is 0.762; with Axitinib + OSI-027 (first compound 0.01581 µM), 0.668; in the experiment with Axitinib + OSI-027 (first compound 0.05 µM), 0.809; with Axitinib + OSI-027 (first compound 0.1581 µM), 0.72; with Axitinib + OSI-027 (first compound 0.5 µM), 0.915; in experiment [1] (first compound 1 µM), 0.943. Also, the relative viability in experiment [1] (first compound 3.162 µM) amounted to 0.896; in experiment [1] (first compound 10 µM), 0.629; in experiment [1] (first compound 31.62 µM), 0.635; in experiment [1] (first compound 100 µM), 0.704; in the experiment with Bemcentinib + Pictilisib (first compound 0.04 µM) it was 0.724; with Bemcentinib + Pictilisib (first compound 0.1265 µM), 0.933. The relative viability with Bemcentinib + Pictilisib (first compound 0.4 µM) came to 0.802; with Bemcentinib + Pictilisib (first compound 1.265 µM) it was 0.764; in the experiment with Bemcentinib + Pictilisib (first compound 4 µM) it was 0.732; with Bemcentinib + Vorinostat (first compound 0.04 µM), 0.898; with Bemcentinib + Vorinostat (first compound 0.1265 µM), 0.735; with Bemcentinib + Vorinostat (first compound 0.4 µM), 0.784. For the same cell line, the relative viability with Bemcentinib + Vorinostat (first compound 1.265 µM) turned out to be 0.725; with Bemcentinib + Vorinostat (first compound 4 µM) it was 0.752.

For PC-14, the relative viability with Axitinib + OSI-027 (first compound 0.005 µM) stood at 0.916; with Axitinib + OSI-027 (first compound 0.01581 µM), 0.717; in the experiment with Axitinib + OSI-027 (first compound 0.05 µM), 0.975; with Axitinib + OSI-027 (first compound 0.1581 µM) it was 0.82; in the experiment with Axitinib + OSI-027 (first compound 0.5 µM), 1.41; in experiment [1] (first compound 3.162 µM), 0.576. The relative viability was 0.551 in experiment [1] (first compound 10 µM); 0.396 in experiment [1] (first compound 31.62 µM); 0.291 in experiment [1] (first compound 100 µM); 0.651 with Bemcentinib + Pictilisib (first compound 0.04 µM); 0.792 with Bemcentinib + Pictilisib (first compound 0.1265 µM); 0.628 with Bemcentinib + Pictilisib (first compound 0.4 µM). Further, the relative viability with Bemcentinib + Pictilisib (first compound 1.265 µM) is 0.509; in the experiment with Bemcentinib + Pictilisib (first compound 4 µM), 0.704; with Bemcentinib + Vorinostat (first compound 0.04 µM), 0.681; in the experiment with Bemcentinib + Vorinostat (first compound 0.1265 µM), 0.696; in the experiment with Bemcentinib + Vorinostat (first compound 0.4 µM) it was 0.979; in the experiment with Bemcentinib + Vorinostat (first compound 1.265 µM), 0.83. Further, the relative viability in the experiment with Bemcentinib + Vorinostat (first compound 4 µM) worked out at 0.664.

Take RERF-LC-KJ: the relative viability stood at 0.701 with Axitinib + OSI-027 (first compound 0.005 µM); 0.529 with Axitinib + OSI-027 (first compound 0.01581 µM); 0.553 in the experiment with Axitinib + OSI-027 (first compound 0.05 µM); 0.503 with Axitinib + OSI-027 (first compound 0.1581 µM); 0.61 in the experiment with Axitinib + OSI-027 (first compound 0.5 µM); 0.498 in experiment [1] (first compound 1 µM). For the same cell line, the relative viability in experiment [1] (first compound 3.162 µM) amounted to 0.412; in experiment [1] (first compound 10 µM) it was 0.308; in experiment [1] (first compound 31.62 µM), 0.253; in experiment [1] (first compound 100 µM), 0.289; in the experiment with Bemcentinib + Pictilisib (first compound 0.04 µM) it was 0.535; with Bemcentinib + Pictilisib (first compound 0.1265 µM) it was 0.575. Further, the relative viability is 0.652 with Bemcentinib + Pictilisib (first compound 0.4 µM); 0.562 with Bemcentinib + Pictilisib (first compound 1.265 µM); 0.572 in the experiment with Bemcentinib + Pictilisib (first compound 4 µM); 0.699 in the experiment with Bemcentinib + Vorinostat (first compound 0.04 µM); 0.732 in the experiment with Bemcentinib + Vorinostat (first compound 0.1265 µM); 0.713 with Bemcentinib + Vorinostat (first compound 0.4 µM). Further, the relative viability in the experiment with Bemcentinib + Vorinostat (first compound 1.265 µM) was 0.635; in the experiment with Bemcentinib + Vorinostat (first compound 4 µM) it was 0.65.

With SK-LU-1, the relative viability with Axitinib + OSI-027 (first compound 0.005 µM) amounted to 0.396; in the experiment with Axitinib + OSI-027 (first compound 0.01581 µM) it was 0.374; in the experiment with Axitinib + OSI-027 (first compound 0.05 µM), 0.37; in the experiment with Axitinib + OSI-027 (first compound 0.1581 µM) it was 0.409; in the experiment with Axitinib + OSI-027 (first compound 0.5 µM), 0.415; in experiment [1] (first compound 1 µM), 0.291. The relative viability was 0.329 in experiment [1] (first compound 3.162 µM); 0.291 in experiment [1] (first compound 10 µM); 0.316 in experiment [1] (first compound 100 µM); 0.557 with Bemcentinib + Pictilisib (first compound 0.04 µM); 0.572 with Bemcentinib + Pictilisib (first compound 0.1265 µM); 0.619 in the experiment with Bemcentinib + Pictilisib (first compound 0.4 µM). The relative viability with Bemcentinib + Pictilisib (first compound 1.265 µM) was found to be 0.587; with Bemcentinib + Pictilisib (first compound 4 µM), 0.679; with Bemcentinib + Vorinostat (first compound 0.04 µM) it was 0.801; with Bemcentinib + Vorinostat (first compound 0.1265 µM) it was 0.762; with Bemcentinib + Vorinostat (first compound 0.4 µM), 0.883; with Bemcentinib + Vorinostat (first compound 1.265 µM) it was 0.887. The relative viability with Bemcentinib + Vorinostat (first compound 4 µM) was 0.746.

SK-MES-1: the relative viability came out at 0.748 in the experiment with Axitinib + OSI-027 (first compound 0.005 µM); 0.647 with Axitinib + OSI-027 (first compound 0.01581 µM); 0.638 in the experiment with Axitinib + OSI-027 (first compound 0.05 µM); 0.642 with Axitinib + OSI-027 (first compound 0.1581 µM); 0.854 with Axitinib + OSI-027 (first compound 0.5 µM); 0.805 in experiment [1] (first compound 1 µM). In addition, the relative viability in experiment [1] (first compound 3.162 µM) is 0.749; in experiment [1] (first compound 10 µM), 0.613; in experiment [1] (first compound 31.62 µM), 0.392; in experiment [1] (first compound 100 µM) it was 0.404; with Bemcentinib + Pictilisib (first compound 0.04 µM), 0.303; with Bemcentinib + Pictilisib (first compound 0.1265 µM), 0.379. The relative viability in the experiment with Bemcentinib + Pictilisib (first compound 0.4 µM) was 0.404; with Bemcentinib + Pictilisib (first compound 1.265 µM) it was 0.361; with Bemcentinib + Pictilisib (first compound 4 µM), 0.374; with Bemcentinib + Vorinostat (first compound 0.04 µM) it was 1.1; with Bemcentinib + Vorinostat (first compound 0.1265 µM), 1.38; with Bemcentinib + Vorinostat (first compound 0.4 µM), 1.17. Moreover, the relative viability with Bemcentinib + Vorinostat (first compound 1.265 µM) was 1.23; with Bemcentinib + Vorinostat (first compound 4 µM), 1.24.

Turning to SW 1573, the relative viability came to 0.592 in the experiment with Axitinib + OSI-027 (first compound 0.005 µM); 0.592 in the experiment with Axitinib + OSI-027 (first compound 0.01581 µM); 0.68 in the experiment with Axitinib + OSI-027 (first compound 0.05 µM); 0.508 in the experiment with Axitinib + OSI-027 (first compound 0.1581 µM); 0.724 in the experiment with Axitinib + OSI-027 (first compound 0.5 µM); 0.184 in experiment [1] (first compound 1 µM). Also, the relative viability was 0.165 in experiment [1] (first compound 3.162 µM); 0.177 in experiment [1] (first compound 10 µM); 0.204 in experiment [1] (first compound 31.62 µM); 0.174 in experiment [1] (first compound 100 µM); 0.409 with Bemcentinib + Pictilisib (first compound 0.04 µM); 0.532 with Bemcentinib + Pictilisib (first compound 0.1265 µM). The relative viability in the experiment with Bemcentinib + Pictilisib (first compound 0.4 µM) is 0.618; with Bemcentinib + Pictilisib (first compound 1.265 µM), 0.488; with Bemcentinib + Pictilisib (first compound 4 µM) it was 0.494; with Bemcentinib + Vorinostat (first compound 0.04 µM) it was 0.662; with Bemcentinib + Vorinostat (first compound 0.1265 µM), 0.785; in the experiment with Bemcentinib + Vorinostat (first compound 0.4 µM) it was 0.873. Besides, the relative viability in the experiment with Bemcentinib + Vorinostat (first compound 1.265 µM) was determined as 0.879; with Bemcentinib + Vorinostat (first compound 4 µM), 0.765.

Turning to UMC-11, the relative viability with Axitinib + OSI-027 (first compound 0.005 µM) amounted to 0.494; with Axitinib + OSI-027 (first compound 0.01581 µM), 0.504; in the experiment with Axitinib + OSI-027 (first compound 0.05 µM), 0.438; with Axitinib + OSI-027 (first compound 0.1581 µM), 0.498; with Axitinib + OSI-027 (first compound 0.5 µM), 0.521; in experiment [1] (first compound 1 µM), 0.179. Further, the relative viability was found to be 0.207 in experiment [1] (first compound 3.162 µM); 0.198 in experiment [1] (first compound 10 µM); 0.19 in experiment [1] (first compound 31.62 µM); 0.175 in experiment [1] (first compound 100 µM); 0.615 with Bemcentinib + Pictilisib (first compound 0.04 µM); 0.929 with Bemcentinib + Pictilisib (first compound 0.1265 µM). The relative viability with Bemcentinib + Pictilisib (first compound 0.4 µM) was 0.902; in the experiment with Bemcentinib + Pictilisib (first compound 1.265 µM), 0.585; in the experiment with Bemcentinib + Pictilisib (first compound 4 µM), 0.85; in the experiment with Bemcentinib + Vorinostat (first compound 0.04 µM), 0.387; in the experiment with Bemcentinib + Vorinostat (first compound 0.1265 µM), 0.359; in the experiment with Bemcentinib + Vorinostat (first compound 0.4 µM), 0.344. For the same cell line, the relative viability with Bemcentinib + Vorinostat (first compound 1.265 µM) was found to be 0.321; with Bemcentinib + Vorinostat (first compound 4 µM) it was 0.376.
